In data set [1] the target is T1, human GLP-1 receptor (Homo sapiens, UniProt P43220).
T1 construct: expressed in transfected cells; host or cells: BHK cells, clone FCW467-12A/KZ10-1 (parent line BHKTS13), further transfected with CRE luciferase
Description: In vitro potency (CRE luciferase; whole cells). The settings on record: for EC50/pM (ratio 1% HSA/0% HSA): ratio of EC50 at 1% HSA to EC50 at 0% HSA; for EC50: BHK cells. More on the design: EC50/pM (ratio 1% HSA/0% HSA): unit not given here. It is filed as cell-based. The gist of the method: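 Reporter: CRE-luciferase in BHK cells stably expressing human GLP-1R, 5×10^3 cells/well; compounds tested in buffer containing 0% or 1% HSA.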

A short description of data set [2]: Pharmacokinetic (PK) study in minipig. The settings on record: male, Göttingen, in vivo, iv.
Description: The purpose of this study is to determine the protraction in vivo of the GLP-1 derivatives after i.v. administration to minipigs, i.e. the prolongation of their time of action. This is done in a pharmacokinetic (PK) study, where the terminal half-life of the derivative in question is determined. By terminal half-life is generally meant the period of time it takes to halve a certain plasma concentration, measured after the initial distribution phase.
Study A: Male Göttingen minipigs were obtained from Ellegaard Göttingen Minipigs (Dalmose, Denmark) approximately 7-14 months of age and weighing from approximately 16-35 kg were used in the studies. The minipigs were housed individually and fed restrictedly once or twice daily with SDS minipig diet (Special Diets Services, Essex, UK). After at least 2 weeks of acclimatisation two permanent central venous catheters were implanted in vena cava caudalis or cranialis in each animal. The animals were allowed 1 week recovery after the surgery, and were then used for repeated pharmacokinetic studies with a suitable wash-out period between successive GLP-1 derivative dosings.
The animals were fasted for approximately 18 h before dosing and from 0 to 4 h after dosing, but had ad libitum access to water during the whole period.
The GLP-1 derivatives were dissolved in 50 mM sodium phosphate, 145 mM sodium chloride, 0.05% tween 80, pH 7.4 to a concentration of usually from 20-60 nmol/ml. […] Blood samples (for example 0.8 ml) were collected in EDTA buffer (8 mM) and then centrifuged at 4° C. and 1942 G for 10 minutes.
Study B: Male Göttingen minipigs were obtained from Ellegaard Göttingen Minipigs (Dalmose, Denmark) approximately 5 months of age and weighing from approximately 9 kg were used in the studies. The minipigs were housed in pens with straw as bedding, six together in each pen and fed restrictedly once or twice daily with Altromin 9023 minipig diet (Chr. Petersen A/S, DK-4100 Ringsted) or Standard SMP(E) minipig diet (Special Diet Services (SDS), UK). The pigs were used for repeated pharmacokinetic studies with a suitable wash-out period between successive GLP-1 derivative dosings.
The GLP-1 derivatives were dissolved in 50 mM sodium phosphate, 145 mM sodium chloride, 0.05% tween 80, pH 7.4 to a concentration of usually from 20-60 nmol/ml. Intravenous injections (the volume corresponding to usually 2 nmol/kg, for example 0.1 ml/kg) of the compounds were given as intravenous injections via a Venflon inserted in an ear vein, while they are placed unanaesthetised in a sling. The dose volume was 0.1 ml/kg, and blood was sampled at predefined time points for up till 17 days post dosing (samples was taken with syringe from a jugular vein).
Individual plasma concentration-time profiles were analyzed by a non-compartmental model in Phoenix WinNonLin ver. […] (Pharsight Inc., Mountain View, Calif., USA), and the resulting terminal half-lives (harmonic mean) determined.
A short description of data set [3]: Pharmacokinetic (PK) study in rat. To be noted: male, Sprague Dawley, in vivo, iv, 6 nmol/kg.
In data set [4] the target is T1, human GLP-1 receptor. The data set is described as follows: GLP-1 receptor binding (SPA, displacement of 125I-GLP-1). A digest of the protocol: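 Tracer [125I]-GLP-1(7-36)NH2 at 0.06 nM final competed on hamster stably transfected cell membranes captured by WGA SPA beads; 120 min, 30 °C, scintillation count.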
In general terms: Loss of bound radioactivity is the signal in a displacement assay; it reports binding, not function.

In data set [5] the test system is Landrace Yorkshire Duroc (LYD) pigs. Description: Pharmacodynamic (PD) study in pigs, food intake. To be noted: single s.c. dose 3.0 nmol/kg. It is filed as in vivo, pig. The method, then:
The purpose of this experiment was to investigate the effect of a couple of Example compounds on food intake in pigs. This was done in a pharmacodynamic (PD) study as described below, in which food intake was measured from 1 to 4 days after administration of a single dose of the GLP-1 derivative, as compared to a vehicle-treated control group.
Female Landrace Yorkshire Duroc (LYD) pigs, approximately 3 months of age, weighing approximately 30-35 kg were used (n=3-4 per group). The animals were housed in a group for approximately 1 week during acclimatisation to the animal facilities. During the experimental period the animals were placed in individual pens at least 2 days before dosing and during the entire experiment for measurement of individual food intake. The animals were fed ad libitum with pig fodder (Svinefoder Danish Top) at all times both during the acclimatisation and the experimental period. Food intake was monitored on line by logging the weight of fodder every 15 minutes. The system used was Mpigwin (Ellegaard Systems, Faaborg, Denmark).
The phosphate buffer serves as vehicle. Animals are dosed with a single subcutaneous dose of the GLP-1 derivative or vehicle (dose volume 0.025 ml/kg) on the morning of day 1, and food intake is measured for 1 day after dosing. On the last day of each study, 1-4 days after dosing, a blood sample for measurement of plasma exposure of the GLP-1 derivative is taken from the heart in anaesthetised animals. The animals are thereafter euthanised with an intra-cardial overdose of pentobarbitone.
Food intake is calculated as mean±SEM food intake in 24 h intervals (0-24 h, 24-48 h, and 48-72 h). In Table 6 below the food intake is indicated as percentage of the food intake of the vehicle group in the same time interval (dosage 3.0 nmol/kg).
Statistical comparisons of the food intake in the 24 h intervals in the vehicle vs. GLP-1 derivative group are done using two-way-ANOVA repeated measures, followed by Bonferroni post-test.

The mark [6] stands for this setting: In vitro potency (CRE luciferase) EC50 (0% HSA), 0% HSA.
Setting [7] is: Receptor binding affinity IC50 (low HSA), 0.001% HSA (low albumin).
The mark [8] stands for this setting: In vitro potency (CRE luciferase) EC50 (1% HSA), 1% HSA.
Setting [9] is: Receptor binding affinity IC50 (high HSA), 2.0% HSA (high albumin).

Numbered stars: 1 amine (or outer) side, 2 acyl side, 3 side chain; on linkers, the order of the positions; unused ones are H or OH. Square brackets hold non-standard residues; d marks the D form. Side chains are listed from the residue outwards. Peptide text beside a SMILES is read from it. * marks the point of attachment. Undecanoyl(11-OPh(4-COOH)) = O=C(O)c1ccc(OCCCCCCCCCCC(=O)*)cc1; γGlu = O=C(O)[C@H](CCC(=O)[*:2])N[*:1]; εLys = N[C@@H](CCCCN[*:1])C(=O)[*:2]; Aib = CC(C)(N)C(=O)O

T1 sequence (P43220 24-463): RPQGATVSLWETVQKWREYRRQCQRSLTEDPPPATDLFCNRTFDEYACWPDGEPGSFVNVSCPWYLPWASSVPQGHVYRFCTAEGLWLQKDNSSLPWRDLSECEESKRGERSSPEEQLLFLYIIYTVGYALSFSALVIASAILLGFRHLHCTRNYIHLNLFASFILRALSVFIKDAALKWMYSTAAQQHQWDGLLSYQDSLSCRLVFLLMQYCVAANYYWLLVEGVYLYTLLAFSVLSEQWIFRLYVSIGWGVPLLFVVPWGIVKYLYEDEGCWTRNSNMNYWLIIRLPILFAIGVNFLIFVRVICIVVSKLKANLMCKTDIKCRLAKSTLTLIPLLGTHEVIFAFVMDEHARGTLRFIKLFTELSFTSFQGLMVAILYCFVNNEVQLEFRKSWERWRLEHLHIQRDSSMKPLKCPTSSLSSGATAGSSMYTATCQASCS

Regarding `CC[C@H](C)[C@H](NC(=O)[C@H](Cc1ccccc1)NC(=O)[C@H](CCC(=O)O)NC(=O)[C@H](CCCCNC(=O)[C@@H](N)CCCCNC(=O)[C@@H](N)CCCCNC(=O)CC[C@H](NC(=O)CCCCCCCCCCCOc1ccc(C(=O)O)cc1)C(=O)O)NC(=O)[C@H](C)NC(=O)[C@H](C)NC(=O)[C@H](CCC(N)=O)NC(=O)CNC(=O)[C@H](CCC(=O)O)NC(=O)[C@H](CC(C)C)NC(=O)[C@H](Cc1ccc(O)cc1)NC(=O)[C@H](CO)NC(=O)[C@H](CO)NC(=O)[C@@H](NC(=O)[C@H](CC(=O)O)NC(=O)[C@H](CO)NC(=O)[C@@H](NC(=O)[C@H](Cc1ccccc1)NC(=O)[C@@H](NC(=O)CNC(=O)[C@H](CCC(=O)O)NC(=O)C(C)(C)NC(=O)[C@@H](N)Cc1c[nH]cn1)[C@@H](C)O)[C@@H](C)O)C(C)C)C(=O)N[C@@H](C)C(=O)N[C@@H](Cc1c[nH]c2ccccc12)C(=O)N[C@@H](CC(C)C)C(=O)N[C@H](C(=O)N[C@@H](CCC(N)=O)C(=O)NCC(=O)N[C@@H](CCCNC(=N)N)C(=O)N[C@@H](CCCCNC(=O)[C@@H](N)CCCCNC(=O)[C@@H](N)CCCCNC(=O)CC[C@H](NC(=O)CCCCCCCCCCCOc1ccc(C(=O)O)cc1)C(=O)O)C(=O)O)C(C)C` [Example 9, N^ε26-[(2S)-2-amino-6-[[(2S)-2-amino-6-[[(4S)-4-carboxy-4-[12-(4-carboxyphenoxy)dodecanoylamino]butanoyl]amino]hexanoyl]amino]hexanoyl], N^ε37-[(2S)-2-amino-6-[[(2S)-2-amino-6-[[(4S)-4-carboxy-4-[12-(4-carboxyphenoxy)dodecanoylamino]butanoyl]amino]hexanoyl]amino]hexanoyl]-[Aib^8,Gln^34,Lys^37]-GLP-1-(7-37)-peptide], the “EC50/pM (ratio 1% HSA/0% HSA)” value at human GLP-1 receptor [1] amounted to 72. Besides, the half-life is 72 h in data set [2] and 20 h in data set [3].

Regarding `CC[C@H](C)[C@H](NC(=O)[C@H](Cc1ccccc1)NC(=O)[C@H](CCC(=O)O)NC(=O)[C@H](CCCCNC(=O)[C@@H](N)CCCCNC(=O)COCCOCCNC(=O)COCCOCCNC(=O)CC[C@H](NC(=O)CCCCCCCCCCOc1ccc(C(=O)O)cc1)C(=O)O)NC(=O)[C@H](C)NC(=O)[C@H](C)NC(=O)[C@H](CCC(N)=O)NC(=O)[C@H](CCC(=O)O)NC(=O)[C@H](CCC(=O)O)NC(=O)[C@H](CC(C)C)NC(=O)[C@H](Cc1ccc(O)cc1)NC(=O)[C@H](CO)NC(=O)[C@H](CO)NC(=O)[C@@H](NC(=O)[C@H](CC(=O)O)NC(=O)[C@H](CO)NC(=O)[C@@H](NC(=O)[C@H](Cc1ccccc1)NC(=O)[C@@H](NC(=O)CNC(=O)[C@H](CCC(=O)O)NC(=O)C(C)(C)NC(=O)[C@@H](N)Cc1c[nH]cn1)[C@@H](C)O)[C@@H](C)O)C(C)C)C(=O)N[C@@H](C)C(=O)N[C@@H](Cc1c[nH]c2ccccc12)C(=O)N[C@@H](CC(C)C)C(=O)N[C@H](C(=O)N[C@@H](CCCNC(=N)N)C(=O)NCC(=O)N[C@@H](CCCNC(=N)N)C(=O)N[C@@H](CCCCNC(=O)[C@@H](N)CCCCNC(=O)COCCOCCNC(=O)COCCOCCNC(=O)CC[C@H](NC(=O)CCCCCCCCCCOc1ccc(C(=O)O)cc1)C(=O)O)C(=O)O)C(C)C` [Example 22], the EC50 on human GLP-1 receptor [1] (setting [6]) stood at 5.5 pM. Moreover, the “EC50/pM (ratio 1% HSA/0% HSA)” value on human GLP-1 receptor [1] is given as 13. For the same compound, the half-life is 59 h in data set [2] and 15 h in data set [3]. This compound also came in with an IC50 on human GLP-1 receptor [4] (setting [7]) of 260 pM.

Take `CC[C@H](C)[C@H](NC(=O)[C@H](Cc1ccccc1)NC(=O)[C@H](CCC(=O)O)NC(=O)[C@H](CCCCNC(=O)[C@@H](N)CCCCNC(=O)[C@H](CO)NC(=O)CNC(=O)[C@H](CO)NC(=O)CC[C@H](NC(=O)CCCCCCCCCCCOc1ccc(C(=O)O)cc1)C(=O)O)NC(=O)[C@H](C)NC(=O)[C@H](C)NC(=O)[C@H](CCC(N)=O)NC(=O)CNC(=O)[C@H](CCC(=O)O)NC(=O)[C@H](CC(C)C)NC(=O)[C@H](Cc1ccc(O)cc1)NC(=O)[C@H](CO)NC(=O)[C@H](CO)NC(=O)[C@@H](NC(=O)[C@H](CC(=O)O)NC(=O)[C@H](CO)NC(=O)[C@@H](NC(=O)[C@H](Cc1ccccc1)NC(=O)[C@@H](NC(=O)CNC(=O)[C@H](CCC(=O)O)NC(=O)C(C)(C)NC(=O)[C@@H](N)Cc1c[nH]cn1)[C@@H](C)O)[C@@H](C)O)C(C)C)C(=O)N[C@@H](C)C(=O)N[C@@H](Cc1c[nH]c2ccccc12)C(=O)N[C@@H](CC(C)C)C(=O)N[C@H](C(=O)N[C@@H](CCCNC(=N)N)C(=O)NCC(=O)N[C@@H](CCCNC(=N)N)C(=O)N[C@@H](CCCCNC(=O)[C@@H](N)CCCCNC(=O)[C@H](CO)NC(=O)CNC(=O)[C@H](CO)NC(=O)CC[C@H](NC(=O)CCCCCCCCCCCOc1ccc(C(=O)O)cc1)C(=O)O)C(=O)O)C(C)C` [Example 24]: the EC50 on human GLP-1 receptor [1] (setting [8]) was found to be 126 pM. In addition, the “EC50/pM (ratio 1% HSA/0% HSA)” value on human GLP-1 receptor [1] was determined as 37. In data set [2], the half-life was 123 h. The compound also came in with a half-maximal inhibitory concentration (IC50) at human GLP-1 receptor [4] (setting [9]) of 136000 pM. Also, the “PD in pig, food intake (% of vehicle) for hours 0-24” value in data set [5] (0-24 h) is recorded as 73 % of vehicle. The “PD in pig, food intake (% of vehicle) for hours 24-48” value in data set [5] (24-48 h) is 73 % of vehicle.

Regarding `CC[C@H](C)[C@H](NC(=O)[C@H](Cc1ccccc1)NC(=O)[C@H](CCC(=O)O)NC(=O)[C@H](CCCCNC(=O)[C@@H](N)CCCCNC(=O)[C@@H](N)CCCCNC(=O)CC[C@H](NC(=O)CCCCCCCCCCOc1ccc(C(=O)O)cc1)C(=O)O)NC(=O)[C@H](C)NC(=O)[C@H](C)NC(=O)[C@H](CCC(N)=O)NC(=O)[C@H](CCC(=O)O)NC(=O)[C@H](CCC(=O)O)NC(=O)[C@H](CC(C)C)NC(=O)[C@H](Cc1ccc(O)cc1)NC(=O)[C@H](CO)NC(=O)[C@H](CO)NC(=O)[C@@H](NC(=O)[C@H](CC(=O)O)NC(=O)[C@H](CO)NC(=O)[C@@H](NC(=O)[C@H](Cc1ccccc1)NC(=O)[C@@H](NC(=O)CNC(=O)[C@H](CCC(=O)O)NC(=O)C(C)(C)NC(=O)[C@@H](N)Cc1c[nH]cn1)[C@@H](C)O)[C@@H](C)O)C(C)C)C(=O)N[C@@H](C)C(=O)N[C@@H](Cc1c[nH]c2ccccc12)C(=O)N[C@@H](CC(C)C)C(=O)N[C@H](C(=O)N[C@@H](CCC(N)=O)C(=O)NCC(=O)N[C@@H](CCCNC(=N)N)C(=O)N[C@@H](CCCCNC(=O)[C@@H](N)CCCCNC(=O)[C@@H](N)CCCCNC(=O)CC[C@H](NC(=O)CCCCCCCCCCOc1ccc(C(=O)O)cc1)C(=O)O)C(=O)O)C(C)C` [Example 36, N^ε26-[(2S)-2-amino-6-[[(2S)-2-amino-6-[[(4S)-4-carboxy-4-[11-(4-carboxyphenoxy)undecanoylamino]butanoyl]amino]hexanoyl]amino]hexanoyl], N^ε37-[(2S)-2-amino-6-[[(2S)-2-amino-6-[[(4S)-4-carboxy-4-[11-(4-carboxyphenoxy)undecanoylamino]butanoyl]amino]hexanoyl]amino]hexanoyl]-[Aib^8,Glu^22,Gln^34,Lys^37]-GLP-1-(7-37)-peptide] (H-H[Aib]EGTFTSDVSSYLEEQAAK([εLys-εLys-γGlu-Undecanoyl(11-OPh(4-COOH))])EFIAWLVQGRK([εLys-εLys-γGlu-Undecanoyl(11-OPh(4-COOH))])-OH; N-terminus and C-terminus assumed), the EC50 on human GLP-1 receptor [1] (setting [6]) worked out at 4.9 pM; on human GLP-1 receptor [1] (setting [8]), 65 pM. The “EC50/pM (ratio 1% HSA/0% HSA)” value at human GLP-1 receptor [1] was 14. In data set [2], this compound gave a half-life of 69 h. Besides, the values for the half-inhibitory concentration (IC50) on human GLP-1 receptor [4] (setting [9]) and on human GLP-1 receptor [4] (setting [7]) were 25000 pM and 100 pM, respectively.

The half-life is the time in which the quantity being followed falls by half. One may read the EC50 as the concentration giving half of the maximal effect. The IC50 is the midpoint of a concentration-inhibition curve.

The values are drawn from patent publication US10604554B2, “Double-acylated GLP-1 derivatives” (Novo Nordisk A/S, priority 2012, dated 2020).
